The values below come from CN105367624A, “一种LLVV-Hemorphin-6肽的制备方法和用途” (Individual, priority 2015, dated 2016).

The assay has as its system 4T1细胞. Kind of assay: In vitro antitumor evaluation: MTT cell viability assay in 4T1 cells. The format is cell-based. The settings on record: 48 h. (Formazan colour is commonly taken as a measure of viable cells.)

Where no end group is shown, it is not given here.

In the case of LLVVYPWTQR [LLVV-Hemorphin-6肽], the “细胞抑制效果 (cell inhibition effect), peptide alone at high concentration” value (peptide 10 μM) is listed as “存在一定的细胞抑制效果”. In addition, the “细胞抑制率 (cell inhibition rate), peptide alone” value (peptide 0.0001-10 μM) is “较低”.
